Results from article PMC6131501, “Urate transporter inhibitor lesinurad is a selective peroxisome proliferator-activated receptor gamma modulator (sPPARγM) in vitro” (Scientific Reports, 2018).
Read-outs that look alike come from different tables or passages of the source.

Experiments:
PPARα = target: T1, PPARα (Homo sapiens, UniProt Q07869); assay: Gal4 hybrid reporter gene assay PPARα; assay type: cell-based
T1 construct: expressed in transfected cells; host or cells: HEK293T
T1 sequence (Q07869 239-466 limits assumed): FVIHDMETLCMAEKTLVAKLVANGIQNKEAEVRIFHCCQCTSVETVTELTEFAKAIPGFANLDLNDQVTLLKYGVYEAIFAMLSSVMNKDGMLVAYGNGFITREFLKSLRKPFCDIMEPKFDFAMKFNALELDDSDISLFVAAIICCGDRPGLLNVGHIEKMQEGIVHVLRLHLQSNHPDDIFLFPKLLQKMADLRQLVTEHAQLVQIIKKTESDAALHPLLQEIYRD
From the text: These in vitro test systems are based on a constitutively expressed hybrid receptor composed of the ligand binding domain of the respective human nuclear receptor and the DNA binding domain of the yeast receptor Gal4. A Gal4-inducible firefly luciferase serves as reporter gene and a constitutively expressed renilla luciferase is used for normalization of transfection efficacy and internal toxicity control[18],[19]. […] The Gal4-fusion receptor plasmids pFA-CMV-hPPARα-LBD[50], pFA-CMV-hPPARγ-LBD[50], pFA-CMV-hPPARδ-LBD[50], pFA-CMV-hLXRα-LBD[51], pFA-CMV-hLXRβ-LBD[51], pFA-CMV-hRXRα-LBD[52], pFA-CMV-hRXRβ-LBD[52], pFA-CMV-hRXRγ-LBD[52], pFA-CMV-hRARα-LBD[52], pFA-CMV-hRARβ-LBD[52], pFA-CMV-hRARγ-LBD[52], pFA-CMV-hFXR-LBD[53], pFA-CMV-hVDR-LBD[52], pFA-CMV-hCAR-LBD[52] and pFA-CMV-hPXR-LBD[52] coding for the hinge region and ligand binding domain (LBD) of the canonical isoform of the respective nuclear receptor have been reported previously. pFR-Luc (Stratagene) was used as reporter plasmid and pRL-SV40 (Promega) for normalization of transfection efficiency and cell growth.
HEK293T cells were grown in DMEM high glucose, supplemented with 10% FCS, sodium pyruvate (1 mM), penicillin (100 U/mL) and streptomycin (100 μg/mL) at 37 °C and 5% CO2. The day before transfection, HEK293T cells were seeded in 96-well plates (3·10^4 cells/well). Before transfection, medium was changed to Opti-MEM without supplements. Transient transfection was carried out using Lipofectamine LTX reagent (Invitrogen) according to the manufacturer’s protocol with pFR-Luc (Stratagene), pRL-SV40 (Promega) and the corresponding Gal4-fusion nuclear receptor plasmid. 5 h after transfection, medium was changed to Opti-MEM supplemented with penicillin (100 U/mL), streptomycin (100 μg/mL), now additionally containing 0.1% DMSO and the respective test compound or 0.1% DMSO alone as untreated control. Each concentration was tested in duplicates and each experiment was repeated independently at least three times. Following overnight (12-14 h) incubation with the test compounds, cells were assayed for luciferase activity using Dual-Glo™ Luciferase Assay System (Promega) according to the manufacturer’s protocol. Luminescence was measured with an Infinite M200 luminometer (Tecan Deutschland GmbH). […] Fold activation was obtained by dividing the mean RLU of a test compound at a respective concentration by the mean RLU of untreated control.

[1] = system: PPARγ-regulated genes in HepG2 cells; assay: PPARγ target gene quantification in HepG2 cells (qPCR); assay type: cell-based, human; conditions: HepG2, 30 μM, 8 h; mean ± SEM, n = 4
Procedure: HepG2 cells were incubated with 1 (30 μM) or 0.1% DMSO as untreated control for 8 h, harvested, washed with cold phosphate-buffered saline (PBS) and then directly used for RNA extraction. 2 μg total RNA were extracted from HepG2 cells by the Total RNA Mini Kit (R6834-02, Omega Bio-Tek, Inc., Norcross, GA, USA). RNA was reverse-transcribed into cDNA using the High-Capacity cDNA Reverse Transcription Kit (4368814, Thermo Fischer Scientific, Inc.) according to the manufacturer’s protocol. PPARγ target gene expression was evaluated by quantitative real time PCR analysis with a StepOnePlus™ System (Life Technologies, Carlsbad, CA, USA) using Power SYBR Green (Life Technologies; 12.5 μL per well). Each sample was set up in duplicates and repeated in four independent experiments. The expression was quantified by the comparative ∆∆Ct method and glycerinaldehyde 3-phosphate dehydrogenase (GAPDH) served as reference gene. The following PCR primers were used: Adiponectin: 5′-TGGCTATGCTCACAGTCTCACATC-3′ (fwd) and 5′-CTCTGTGCCTCTGGTTCCACAA-3′ (rev); ANGPTL4: 5′-ATTCTTTCCAGCGGCTTCTG-3′ (fwd) and 5′-GAG GAC TGG AGA CGC GGA G-3′ (rev); CD36: 5′-GGC TGT GAC CGG AAC TGT G-3′ (fwd) and 5′-AGGTCTCCAACTGGCATTAGAA-3′ (rev); GAPDH: 5′-ATATGATTCCACCCATGGCA-3′ (fwd) and 5′-GATGATGACCCTTTTGGCTC-3′ (rev).
Results (expressed as mean ± SEM % relative mRNA expression to vehicle (0.1% DMSO); n = 4): Adiponectin: 1 (30 μM): 163 ± 41%; ANGPTL4: 1 (30 μM): 298 ± 49%; CD36: 1 (30 μM): 105 ± 16%.

[2] = Aqueous solubility (noted for ITC); assay type: physicochemical
From the text: To confirm direct modulation of PPARγ by lesinurad, we analyzed their interaction by isothermal titration calorimetry (ITC). Due to limited solubility of lesinurad, recombinant PPARγ ligand binding domain (LBD) protein was (reversely) titrated to the drug.

[3] = cited from earlier work; for peak plasma levels: oral dose of 200 mg
CYP3A4 = system: CYP3A4; parameters: method as in PMID 28067999; conditions: cited from earlier work

SMILES: O=C(O)CSc1nnc(Br)n1-c1ccc(C2CC2)c2ccccc12 [lesinurad]
- Gal4-PPARα transactivation (PPARα; 30 μM, compared with PPARγ): lower efficacy
- EC50 (PPARα; Gal4 hybrid reporter, HEK293T, 12-14 h, mean ± SEM, at least three experiments): 20.8 ± 0.7 µM
- PPARα activation efficacy (PPARα; vs. 1 µM of PPARα agonist GW7647): 13.5 ± 0.5%
- ANGPTL4 relative mRNA expression to vehicle [1]: 298 ± 49%
- Adiponectin relative mRNA expression to vehicle [1]: 163 ± 41%
- CD36 relative mRNA expression to vehicle [1]: 105 ± 16%
- aqueous solubility [2]: limited aqueous solubility
- free concentration ([3]; free plasma concentration after protein binding): 300 to 600 nM
- peak plasma levels ([3]; ref 40): 15 µM
- peak plasma levels ([3]; ref 41): 17 µM
- mean peak plasma levels ([3]; single 600 mg oral dose, healthy men): 22 µg/mL
- CYP3A4 induction (CYP3A4): CYP3A4 inducer
